US20220202832A1, “ALLOPREGNANOLONE COMPOSITIONS AND USES THEREOF” (The Regents of the University of California, priority 2019, published 2022)
Entries after “also recorded” stand apart in the source; their conditions may differ. Where two headings read alike, the source gives them in different places.

How the values were obtained:
[1] = intranasal; cited from earlier work
[2] = test system: PTZ-induced seizures (seizure threshold); experiment: timed intravenous PTZ seizure threshold test; type: in vivo, mice; conditions: for elevation in thresholds to the three seizure endpoints: intranasal 1 mg/kg, compared with allopregnanolone 16 mg/kg; for effect on seizure threshold parameters: Example 2
Procedure: (§1) The thresholds for various behavioral seizure stages induced by the PTZ and bicuculine were determined by infusing the convulsant drugs via a 27-gauge, 0.75-inch “butterfly” needle inserted into the lateral tail vein. PTZ (10 mg/ml) and bicuculline (0.1 mg/ml) were infused IV at a constant rate of 0.5 ml/min using a 5-ml syringe (BD Biosciences, Franklin Lakes, N.J.) mounted on an infusion pump (Model ‘11’ Plus Syringe Pump; Harvard Apparatus, Holliston, Mass.). The syringe was connected to the needle by polyethylene tubing. The infusion was stopped at 3 min or at the onset of tonic extension, whichever occurred first. The time to occurrence (“infusion duration”) to the following endpoints from the start of the convulsant infusion were determined: (1) the first myoclonic jerk; (2) the onset of generalized clonus; and (3) the onset of tonic extension. Infusion duration values represent the time from the start of the convulsant infusion to the onset of the endpoint. The threshold value (mg/kg) for each endpoint was determined according to the following formula: (infusion duration [s]×infusion rate [ml/min]×convulant concentration [10 mg/ml or 0.1 mg/ml]×1000)/(60 s×body weight of mouse [g]).

motor function of mice = experiment: horizontal screen test (motor impairment); type: in vivo; conditions: for animals that fell from the grid: intranasal 1 mg/kg; for motor function in the horizontal screen test, in words: intranasal, doses with comparable antiseizure activity
Procedure: At various times after intranasal administration, mice were placed on a horizontally oriented grid (consisting of parallel 1.5-mm diameter rods situated 1 cm apart) for 2-3 s and the grid was inverted and held approximately 30-40 cm above a padded surface for a maximum of 60 s. If the animal fell from the grid, the latency from the time of inversion to the time of fall was recorded.

PTZ-induced seizures = experiment: maximal PTZ seizure test; type: in vivo, mice
Procedure: Solutions of allopregnanolone (5α,3α-P) (15 mg/ml) were prepared in 40% sulfobutylether-β-cyclodextrin sodium salt in 0.9% saline. Seizures were induced in mice with pentylenetetrazol (PTZ; […] IP). 5α,3α-P solution (6 and 10 mg/kg) or vehicle was administered intranasally 5, 10 and 15 min prior to administration of the PTZ. […] The times to onset of myoclonic body twitches and clonic and tonic seizures were recorded. 5α,3α-P was considered to have antiseizure activity if it delayed the onset of seizure signs in comparison with the time of their occurrence in vehicle-treated animals.
The times to occurrence of the 3 seizure signs as in the timed intravenous PTZ seizure test were recorded. Allopregnanolone (10 mg/kg) or vehicle was administered intranasally 10 min prior to the PTZ injection.

[3] = even when solubilized with sulfobutyl ether β-cyclodextrin, sodium salt; cited from earlier work
[4] = plasma pharmacokinetics after intranasal or intramuscular dosing
Procedure: Allopregnanolone (16 mg/mL in 40% Captisol® in 0.9% saline) was administered intranasally at a total dose of 10 mg/kg. 2-3 microliters of solution was administered 3-5 times to each nostril (6-10 times total) over a period of 3.5 min. Allopregnanolone (6 mg/mL in 24% Captisol® in 0.9% saline) was administered intramuscularly at a total dose of 12 mg/kg. Time course of plasma levels of allopregnanolone following intranasal allopregnanolone (10 mg/kg) and intramuscular allopregnanolone (12 mg/kg) was monitored. At various times after administration, trunk blood was collected in chilled heparinized tubes. In some cases, blood was collected by retro-orbital puncture. Plasma was separated and assayed for allopregnanolone as described in Zolkowska D. et al., Epilepsia 2018 October; 59 Suppl 2:220-227.
At various times after intranasal administration, trunk blood samples were collected into chilled tubes. Brains were removed, separated into 3 sections (olfactory bulb, forebrain with midbrain, cerebellum with attached pons and medulla) and fast-frozen on dry ice. Blood was centrifuged at 1500 RCF for 10 min to separate the plasma. Brain and plasma samples were stored at −80° C. until processing. Plasma and brain samples were analyzed for allopregnanolone as described in Zolkowska et al (2018). The lower limit of quantification in plasma is 2.5 ng/ml.

[5] = human; cited from earlier work
[6] = brain region pharmacokinetics after intranasal dosing
righting reflex of mice = experiment: loss of righting reflex test; type: in vivo; conditions: for loss of righting reflex (sedation), in words: 10 min to 30 min after administration
Procedure: Time course of loss of righting reflex following intranasal allopregnanolone (16 mg/kg) and intramuscular allopregnanolone (16 mg/kg). Loss of righting reflex is a nonnoxious behavioral paradigm that indicates loss of consciousness (hypnosis). […] Intranasal delivery of alloprepregnanolone according to the methods described herein avoids the adverse effects on behavior associated with intramuscular bolus administration.
For the test, the mouse was placed on its back on a tabletop.

[7] = test system: bicuculline-induced seizures (seizure threshold); experiment: intravenous bicuculline threshold test; type: in vivo, mice; conditions: intranasal 16 mg/kg; 10 min
Procedure: as §1

[8] = cited from earlier work
[9] = intranasal 10 mg/kg, 10 min before PTZ 80 mg/kg IP
[10] = mouse, plasma, inhaled or intranasal, 10 mg/kg
[11] = mouse, olfactory bulb, inhaled or intranasal, 10 mg/kg
[12] = intranasal 16 mg/kg, 10 min after dosing

SMILES: CCC(=O)O[C@]1(C(=O)SCF)[C@H](C)C[C@H]2[C@@H]3C[C@H](F)C4=CC(=O)C=C[C@]4(C)[C@@]3(F)[C@@H](O)C[C@@]21C [fluticasone propionate]
- systemic availability [1]: negligible

SMILES: Cc1ncc2n1-c1ccc(Cl)cc1C(c1ccccc1F)=NC2 [midazolam]
- elevation in thresholds to the three seizure endpoints [2]: comparable elevations
- animals that fell from the grid (motor function of mice): all
- motor function in the horizontal screen test, in words (motor function of mice): dramatically impair motor function

SMILES: CC(=O)[C@H]1CC[C@H]2[C@@H]3CC[C@H]4C[C@H](O)CC[C@]4(C)[C@H]3CC[C@]12C [allopregnanolone, 3α-hydroxy-5α-pregnan-20-one]
- delay in seizure signs (PTZ-induced seizures; Example 1, administered 15 min before PTZ, compared with 5 min): less active
- effect on time to onset of seizure signs (PTZ-induced seizures; Example 1, intranasal 6 mg/kg): delayed the time to onset of all seizure signs
- protection from tonic hind limb extension and mortality (PTZ-induced seizures; Example 1, intranasal 10 mg/kg): some animals were protected
- ratio of latencies, drug to vehicle: clonus (PTZ-induced seizures; [9]): 1.5
- ratio of latencies, drug to vehicle: myoclonic twitch (PTZ-induced seizures; [9]): 1.3
- ratio of latencies, drug to vehicle: tonic extension (PTZ-induced seizures; [9]): 4.4
- animals that failed to exhibit tonic extension (PTZ-induced seizures; intranasal 10 mg/kg, of the 14 animals tested): 5
- oral bioavailability [3]: not orally bioavailable
- time therapeutic levels are maintained ([4]; intramuscular): about 2 hours
- time by which plasma levels taper off ([4]; intramuscular 12 mg/kg): about 4 hours
- time therapeutically meaningful blood levels are maintained ([4]; intranasal): up to 8 hours
- time plasma levels are sustained ([4]; intranasal 10 mg/kg): up to 8 hours
- true Cmax (time) ([4]; intranasal 10 mg/kg, likely value): < 5 min
- Cmax [4, 10]: 3500 ng/mL
- Tmax [4, 10]: 1 min
- half-life ([4]; mouse, plasma, inhaled or intranasal, 10 mg/kg, plasma initial phase t1/2, intranasal 10 mg/kg, first 15 min): 4.9 min
- half-life ([4]; mouse, plasma, inhaled or intranasal, 10 mg/kg, plasma t1/2 (overall curve), intranasal 10 mg/kg): 49 min
- t1/2 [5]: 35 min
- olfactory bulb levels compared with plasma levels ([6]; intranasal): substantially higher than the plasma levels
- olfactory bulb concentration relative to whole brain ([6]; intranasal 16 mg/kg, mean of 1, 2, 5 and 10 min): 10 fold
- Cmax ([6]; mouse, forebrain, cerebellum, inhaled or intranasal, 10 mg/kg): 600 to 700 ng/g
- Cmax [6, 11]: 16000 ng/g
- Tmax [6, 11]: 1 min
- animals exhibiting loss of righting reflex (righting reflex of mice; intramuscular 16 mg/kg): 9 of 10
- loss of righting reflex (sedation), in words (righting reflex of mice; intramuscular 16 mg/kg): substantial loss of righting reflex; also recorded: profound sedation
- loss of righting reflex (sedation), in words (righting reflex of mice; intramuscular 16 mg/kg, listed as Allopregnanolone): loss of righting reflex in a high proportion of mice
- loss of righting reflex (sedation/general anesthesia), in words (righting reflex of mice; intranasal 16 mg/kg): not associated with substantial sedation/general anesthesia; also recorded: only minimal loss of righting reflex
- animals exhibiting loss of righting reflex (righting reflex of mice; intranasal 16 mg/kg, 60 min observation): 2 of 25
- loss of righting reflex (sedation/general anesthesia), in words (righting reflex of mice; intranasal 16 mg/kg, listed as Allopregnanolone): loss of righting reflex in only a small proportion of animal
- ratio of threshold, drug to vehicle: tonic extension [7]: 1.5
- dose adjusted Cmax ([8]; intramuscular, prior study): 2150 ng/mL
- Tmax ([8]; intramuscular): 60 min
- plasma concentration half-time (t1/2) ([8]; mice): 16 min
- effect on seizure threshold parameters ([2]; intranasal 16 mg/kg, 10 minutes): large and statistically significant increase
- effect on seizure threshold parameters ([2]; intranasal 16 mg/kg, 1 hour): diminishes
- effect on seizure threshold parameters ([2]; intranasal 16 mg/kg, 8 hours): absent; also recorded: no substantial elevation
- change in tonic extension threshold versus vehicle ([2]; intranasal 16 mg/kg, 10 min): statistically significant increase
- ratio of mean threshold values, drug to vehicle: clonus [2, 12]: 1.4
- ratio of mean threshold values, drug to vehicle: myoclonic twitch [2, 12]: 1.3
- ratio of mean threshold values, drug to vehicle: tonic extension [2, 12]: 2.7
- ratio of mean thresholds, drug to vehicle: tonic extension ([2]; intranasal 16 mg/kg, 15 min (maximum elevation)): 5.3
- ratio of mean thresholds, drug to vehicle: tonic extension ([2]; intranasal 16 mg/kg, 60 min): 1.3
- ratio of mean thresholds, drug to vehicle: tonic extension ([2]; intranasal 16 mg/kg, 360 min): 1.1
- animals that did not fall from the grid (motor function of mice; intranasal 16 mg/kg): 5 of 8
- area under mean holding time versus time curve, compared with untreated (naive) animals (motor function of mice; intranasal 16 mg/kg): not significantly different
- motor function in the horizontal screen test, in words (motor function of mice): fails to cause substantial sedation or motor impairment

SMILES: CC1(C)O[C@@H]2C[C@H]3[C@@H]4C[C@H](F)C5=CC(=O)C=C[C@]5(C)[C@H]4[C@@H](O)C[C@]3(C)[C@]2(C(=O)CO)O1 [flunisolide]
- systemic availability [1]: substantial

SMILES: CN1C(=O)CN=C(c2ccccc2)c2cc(Cl)ccc21 [diazepam]
- elevation in thresholds to the three seizure endpoints [2]: comparable elevations
- animals that fell from the grid (motor function of mice): all
- motor function in the horizontal screen test, in words (motor function of mice): dramatically impair motor function
